Where a name gives a salt, the structure may show the parent alone.
System: TNFα
Assay: LPS Stimulated Whole Blood Measuring TNFα Levels Assay
Assay type: cell-based
Conditions: 24 h, LPS 200 ng/ml, immunoassay, read-out: pIC50, TNFα levels in LPS stimulated whole blood (converted)
Protocol: LPS Stimulated Whole Blood Measuring TNFα Levels Assay
Activation of monocytic cells by agonists of toll-like receptors such as bacterial lipopolysaccharide (LPS) results in production of key inflammatory mediators including TNFα. Such pathways are widely considered to be central to the pathophysiology of a range of auto-immune and inflammatory disorders.
Compounds to be tested are diluted to give a range of appropriate concentrations and 1 ul of the dilution stocks is added to wells of a 96 plate. Following addition of whole blood (130 ul) the plates are incubated at 37 degrees (5% CO2) for 30 min before the addition of 10 ul of 2.8 ug/ml lipopolysaccharides (LPS), diluted in complete RPMI 1640 (final concentration=200 ng/ml), to give a total volume of 140 ul per well. After further incubation for 24 hours at 37 degrees, 140 ul of PBS are added to each well. The plates are sealed, shaken for 10 minutes and then centrifuged (2500 rpm×10 min). 100 ul of the supernatant are removed and TNFα levels assayed by immunoassay (typically by MesoScale Discovery technology) either immediately or following storage at −20 degrees. Dose response curves for each compound was generated from the data and an IC50 value was calculated.

SMILES	IC50 [µM]
CC(=O)N1c2ccc(-c3ccc(N4CCN(C(=O)OC(C)(C)C)CC4)nc3)cc2[C@@H](NC(=O)OC(C)C)C[C@H]1C (racemic) [Example 8, 1,1-dimethylethyl 4-{5-[(cis)-1-acetyl-2-methyl-4-({[(1-methylethyl)oxy]carbonyl}amino)-1,2,3,4-tetrahydro-6-quinolinyl]-2-pyridinyl}-1-piperazinecarboxylate]	≤ 6.31
CC(=O)N1c2ccc(-c3ncc(CN4CCCCC4)s3)cc2[C@@H](NC(=O)OC(C)C)C[C@H]1C (racemic) [Example 52, 1-methylethyl {(cis)-1-acetyl-2-methyl-6-[5-(1-piperidinylmethyl)-1,3-thiazol-2-yl]-1,2,3,4-tetrahydro-4-quinolinyl}carbamate hydrochloride]	≤ 6.31
CC(=O)N1c2ccc(-c3ccc(CN4CCCC4)cc3)cc2[C@H](NC(=O)OC(C)C)C[C@@H]1C (relative stereo) [Example 30, 1-methylethyl {(cis)-1-acetyl-2-methyl-6-[4-(1-pyrrolidinylmethyl)phenyl]-1,2,3,4-tetrahydro-4-quinolinyl}carbamate hydrochloride]	≤ 6.31
CC(=O)N1c2ccc(-c3cc(CN4CCCCC4)co3)cc2[C@@H](NC(=O)OC(C)C)C[C@H]1C (racemic) [Example 18, 1-methylethyl {(cis)-1-acetyl-2-methyl-6-[4-(1-piperidinylmethyl)-2-furanyl]-1,2,3,4-tetrahydro-4-quinolinyl}carbamate]	≤ 6.31
CC(=O)N1c2ccc(-c3cnc(N4CCCCC4)nc3)cc2[C@@H](NC(=O)OC(C)C)C[C@H]1C (racemic) [Example 49, 1-methylethyl {(cis)-1-acetyl-2-methyl-6-[2-(1-piperidinyl)-5-pyrimidinyl]-1,2,3,4-tetrahydro-4-quinolinyl}carbamate hydrochloride]	≤ 6.31
CC(=O)N1c2ccc(-c3ccc(N4CCNCC4)nn3)cc2[C@@H](NC(=O)OC(C)C)C[C@H]1C (racemic) [Example 45, 1-methylethyl {(cis)-1-acetyl-2-methyl-6-[6-(1-piperazinyl)-3-pyridazinyl]-1,2,3,4-tetrahydro-4-quinolinyl}carbamate hydrochloride]	≤ 6.31
CC(=O)N1c2ccc(-c3cnc(N4CCOCC4)nc3)cc2[C@@H](NC(=O)OC(C)C)C[C@H]1C (racemic) [Example 51, 1-methylethyl {(cis)-1-acetyl-2-methyl-6-[2-(4-morpholinyl)-5-pyrimidinyl]-1,2,3,4-tetrahydro-4-quinolinyl}carbamate hydrochloride]	≤ 6.31
CC(=O)N1c2ccc(-c3cnn(CCN4CCCCC4)c3)cc2[C@@H](NC(=O)OC(C)C)C[C@H]1C (racemic) [Example 46, 1-methylethyl((cis)-1-acetyl-2-methyl-6-{1-[2-(1-piperidinyl)ethyl]-1H-pyrazol-4-yl}-1,2,3,4-tetrahydro-4-quinolinyl)carbamate hydrochloride]	≤ 6.31
CC(=O)N1c2ccc(-c3ccc(CN4CCCCC4)cc3)cc2[C@@H](NC(=O)OC(C)(C)C)C[C@H]1C (racemic) [Example 17, 1,1-dimethylethyl {(cis)-1-acetyl-2-methyl-6-[4-(1-piperidinylmethyl)phenyl]-1,2,3,4-tetrahydro-4-quinolinyl}carbamate]	≤ 6.31
CC(=O)N1c2ccc(-c3ccn[nH]3)cc2[C@@H](NC(=O)OC(C)C)C[C@H]1C (racemic) [Example 31, 1-methylethyl[(cis)-1-acetyl-2-methyl-6-(1H-pyrazol-5-yl)-1,2,3,4-tetrahydro-4-quinolinyl]carbamate]	≤ 6.31
CC(=O)N1c2ccc(-c3ccc(C#N)cc3)cc2[C@H](NC(=O)OC(C)C)C[C@@H]1C [Example 120, 1-Methylethyl[(2S,4R)-1-acetyl-6-(4-cyanophenyl)-2-methyl-1,2,3,4-tetrahydro-4-quinolinyl]carbamate]	≤ 6.31
CC(=O)N1c2ccc(-c3ccc(CN4CCCCC4)cc3)cc2[C@H](N(C)C(=O)OC(C)C)C[C@@H]1C (racemic) [Example 42, formic acid-1-methylethyl {(cis)-1-acetyl-2-methyl-6-[4-(1-piperidinylmethyl)phenyl]-1,2,3,4-tetrahydro-4-quinolinyl}methylcarbamate (1:1)]	≤ 6.31
CC(=O)N1c2ccc(-c3ccc(N4CCCCC4)nc3)cc2[C@@H](NC(=O)OC(C)C)C[C@H]1C (racemic) [Example 11, 1-methylethyl {(cis)-1-acetyl-2-methyl-6-[6-(1-piperidinyl)-3-pyridinyl]-1,2,3,4-tetrahydro-4-quinolinyl}carbamate hydrochloride]	≤ 6.31
